Where two headings read alike, the source gives them in different places.

The conditions of the series: for Qualitative Tmax (urine collection with greatest excretion): 12h urine collections, np = no peak; for Cmax (nmol excreted) / Tmax: urine; for Cmax (nmol excreted): mean ± SD; for Tmax: female, Sprague Dawley, rat, po.

Consider `COc1ccc(CC(=O)O)cc1O` [3-OH-4-OMe-PAA], for which the “Qualitative Tmax (urine collection with greatest excretion)” value (shortened to “Qualitative Tmax”) reads like this: (High dose (1000 mg/kg bw)) “np”; (Low dose (75 mg/kg bw)) “np”; (Medium dose (350 mg/kg bw)) “np”. In addition, the “Cmax (nmol excreted)” value (High dose (1000 mg/kg bw)) is listed as “np”, the “Cmax (nmol excreted)” value (Low dose (75 mg/kg bw)) is given as “np” and the “Cmax (nmol excreted)” value (Medium dose (350 mg/kg bw)) is “np”.
As for `COc1ccc(CCC(=O)O)cc1O` [3-OH-4-OMe-PPA, 3-hydroxy-4-methoxyphenylpropionic acid], the “Qualitative Tmax” value reads like this: (High dose (1000 mg/kg bw)) 12 to 24 h; (Low dose (75 mg/kg bw)) 0 to 12 h; (Medium dose (350 mg/kg bw)) 12 to 24 h. For the same compound, the “Cmax (nmol excreted)” value came out at 2.48 ± 2.69 nmol excreted (High dose (1000 mg/kg bw)), 0.82 ± 0.58 nmol excreted (Low dose (75 mg/kg bw)) and 2.69 ± 1.83 nmol excreted (Medium dose (350 mg/kg bw)).
Take `O=C(O)CNC(=O)c1cccc(O)c1` [3-OH-hippuric acid, 3-hydroxyhippuric acid]: the “Cmax (nmol excreted)” value (High dose (1000 mg/kg bw)) was 26.3 ± 7.6 nmol excreted, the “Cmax (nmol excreted)” value (Low dose (75 mg/kg bw)) is listed as “np” and the “Cmax (nmol excreted)” value (Medium dose (350 mg/kg bw)) worked out at 31.8 ± 8.1 nmol excreted. Also, the “Qualitative Tmax” value (Low dose (75 mg/kg bw)) is “np”. The time of peak concentration (Tmax) runs as follows: (350 mg/kg) 12 to 24 h; (1000 mg/kg) 12 to 24 h.
On to `O=C(O)Cc1ccc(O)cc1` [4-OH-PAA, 4-hydroxyphenylacetic acid], for which the “Cmax (nmol excreted)” value runs as follows: (High dose (1000 mg/kg bw)) 0.51 ± 0.16 nmol excreted; (Low dose (75 mg/kg bw)) 0.30 ± 0.12 nmol excreted; (Medium dose (350 mg/kg bw)) 0.84 ± 0.38 nmol excreted. The Tmax is, setting by setting: (75 mg/kg) 0 to 24 h; (350 mg/kg) 0 to 24 h; (1000 mg/kg) 0 to 24 h.
As for `O=C(O[C@@H]1O[C@H](C(=O)O)[C@@H](O)[C@H](O)[C@H]1O)c1ccccc1` [BzA glucuronide], the “Qualitative Tmax” value (High dose (1000 mg/kg bw)) was 12 to 24 h, the “Qualitative Tmax” value (Low dose (75 mg/kg bw)) is recorded as “np” and the “Qualitative Tmax” value (Medium dose (350 mg/kg bw)) was in the range of 12 to 24 h. In addition, the “Cmax (nmol excreted)” value runs as follows: (High dose (1000 mg/kg bw)) 0.76 ± 0.17 nmol excreted; (Low dose (75 mg/kg bw)) “np”; (Medium dose (350 mg/kg bw)) 0.85 ± 0.17 nmol excreted.
Take `O=C(O)/C=C/c1ccc(O)c(O)c1` [Caffeic acid, caffeic acid]: the “Cmax (nmol excreted)” value is listed as 3.97 ± 1.38 nmol excreted (High dose (1000 mg/kg bw)), “np” (Low dose (75 mg/kg bw)) and 3.18 ± 1.64 nmol excreted (Medium dose (350 mg/kg bw)). In addition, the “Qualitative Tmax” value (Low dose (75 mg/kg bw)) is on record as “np”. Also, the Tmax by setting is: (350 mg/kg) 0 to 12 h; (1000 mg/kg) 0 to 12 h.
Turning to `O=C(/C=C/c1ccc(O)c(O)c1)O[C@@H]1C[C@](O)(C(=O)O)C[C@@H](O)[C@H]1O` [Chlorogenic acid, chlorogenic acid], the “Cmax (nmol excreted)” value is listed as 238 ± 67 nmol excreted (High dose (1000 mg/kg bw)), “np” (Low dose (75 mg/kg bw)) and 66.1 ± 23.4 nmol excreted (Medium dose (350 mg/kg bw)). The “Qualitative Tmax” value (Low dose (75 mg/kg bw)) was “np”. Further, the time of peak concentration (Tmax) runs as follows: (350 mg/kg) 0 to 24 h; (1000 mg/kg) 0 to 12 h.
For `OC[C@H]1O[C@@H](Oc2cc3c(O)cc(O)cc3[o+]c2-c2ccc(O)c(O)c2)[C@H](O)[C@@H](O)[C@H]1O` [Cyanidin Galactoside], the “Qualitative Tmax” value reads like this: (High dose (1000 mg/kg bw)) 0 to 12 h; (Low dose (75 mg/kg bw)) “np”; (Medium dose (350 mg/kg bw)) 0 to 12 h. In addition, the “Cmax (nmol excreted)” value was 0.46 ± 0.09 nmol excreted (High dose (1000 mg/kg bw)), “np” (Low dose (75 mg/kg bw)) and 0.19 ± 0.04 nmol excreted (Medium dose (350 mg/kg bw)).
In the case of `OC[C@H]1O[C@@H](Oc2cc3c(O)cc(O)cc3[o+]c2-c2ccc(O)c(O)c2)[C@H](O)[C@@H](O)[C@@H]1O` [Cyanidin Glucoside, cyanidin-3-O-glucoside], the “Qualitative Tmax” value (High dose (1000 mg/kg bw)) was in the range of 0 to 12 h, the “Qualitative Tmax” value (Low dose (75 mg/kg bw)) was “np” and the “Qualitative Tmax” value (Medium dose (350 mg/kg bw)) lay in the range of 0 to 24 h. Besides, the “Cmax (nmol excreted)” value reads like this: (High dose (1000 mg/kg bw)) 0.22 ± 0.04 nmol excreted; (Low dose (75 mg/kg bw)) “np”; (Medium dose (350 mg/kg bw)) 0.11 ± 0.05 nmol excreted.
For `OC[C@H]1O[C@@H](Oc2cc3c(O)cc(O)cc3[o+]c2-c2cc(O)c(O)c(O)c2)[C@H](O)[C@@H](O)[C@H]1O` [Delphinidin Galactoside], the “Qualitative Tmax” value is 0 to 12 h (High dose (1000 mg/kg bw)), “np” (Low dose (75 mg/kg bw)) and 0 to 12 h (Medium dose (350 mg/kg bw)). Also, the “Cmax (nmol excreted)” value by setting is: (High dose (1000 mg/kg bw)) 1.74 ± 0.22 nmol excreted; (Low dose (75 mg/kg bw)) “np”; (Medium dose (350 mg/kg bw)) 0.98 ± 0.20 nmol excreted.
Consider `OC[C@H]1O[C@@H](Oc2cc3c(O)cc(O)cc3[o+]c2-c2cc(O)c(O)c(O)c2)[C@H](O)[C@@H](O)[C@@H]1O` [Delphinidin Glucoside, delphindin-3-O-glucoside], for which the “Qualitative Tmax” value is 0 to 24 h (High dose (1000 mg/kg bw)), “np” (Low dose (75 mg/kg bw)) and 0 to 24 h (Medium dose (350 mg/kg bw)). In addition, the “Cmax (nmol excreted)” value (High dose (1000 mg/kg bw)) came out at 0.94 ± 0.22 nmol excreted, the “Cmax (nmol excreted)” value (Low dose (75 mg/kg bw)) is given as “np” and the “Cmax (nmol excreted)” value (Medium dose (350 mg/kg bw)) was 0.81 ± 0.14 nmol excreted.
Turning to `COc1cc(-c2[o+]c3cc(O)cc(O)c3cc2O[C@@H]2O[C@H](CO)[C@H](O)[C@H](O)[C@H]2O)cc(OC)c1O` [Malvidin Galactoside, malvidin-3-O-galactoside], the “Qualitative Tmax” value runs as follows: (High dose (1000 mg/kg bw)) 0 to 12 h; (Low dose (75 mg/kg bw)) “np”; (Medium dose (350 mg/kg bw)) 0 to 12 h. For the same compound, the “Cmax (nmol excreted)” value is 14.2 ± 1.3 nmol excreted (High dose (1000 mg/kg bw)), “np” (Low dose (75 mg/kg bw)) and 7.36 ± 2.00 nmol excreted (Medium dose (350 mg/kg bw)). Further, the “Time of maximal urinary excretion after dosing” value (as stated in text/figure legend, doses not separated) is on record as at most 12 h.
`COc1cc(-c2[o+]c3cc(O)cc(O)c3cc2O[C@@H]2O[C@H](CO)[C@@H](O)[C@H](O)[C@H]2O)cc(OC)c1O` [Malvidin Glucoside, malvidin-3-O-glucoside]: the “Qualitative Tmax” value runs as follows: (High dose (1000 mg/kg bw)) 0 to 12 h; (Low dose (75 mg/kg bw)) “np”; (Medium dose (350 mg/kg bw)) 0 to 12 h. The “Cmax (nmol excreted)” value (High dose (1000 mg/kg bw)) is listed as 10.7 ± 0.9 nmol excreted, the “Cmax (nmol excreted)” value (Low dose (75 mg/kg bw)) is “np” and the “Cmax (nmol excreted)” value (Medium dose (350 mg/kg bw)) is reported as 6.57 ± 0.57 nmol excreted.
Regarding `COc1cc(-c2[o+]c3cc(O)cc(O)c3cc2OC2OC(CO)C(O)C(O)C2O)cc(O)c1O` (stereo not shown) [Petunidin Galactoside, petunidin-3-O-galactoside], the “Qualitative Tmax” value (High dose (1000 mg/kg bw)) lay within 0 to 12 h, the “Qualitative Tmax” value (Low dose (75 mg/kg bw)) is reported as “np” and the “Qualitative Tmax” value (Medium dose (350 mg/kg bw)) was 0 to 12 h. In addition, the “Cmax (nmol excreted)” value (High dose (1000 mg/kg bw)) is listed as 1.73 ± 0.38 nmol excreted, the “Cmax (nmol excreted)” value (Low dose (75 mg/kg bw)) is listed as “np” and the “Cmax (nmol excreted)” value (Medium dose (350 mg/kg bw)) stood at 0.49 ± 0.23 nmol excreted.

Usually Tmax stands for the time from dosing to the highest level.

The values above are taken from paper PMC9558423 (Molecular nutrition & food research, 2020).
